Results from ChEMBL document CHEMBL1154188, “Kinase inhibitor data modeling and de novo inhibitor design with fragment approaches” (J Med Chem, 2009).

Legend:
[1] = biological target: Ribosomal protein S6 kinase beta-1 (Homo sapiens) (UniProt P23443); test: Inhibition of recombinant P70S6K at 20 uM by [gamma-33P]ATP based assay
[2] = biological target: T1, Hepatocyte growth factor receptor (Homo sapiens, UniProt P08581); test: Inhibition of recombinant MET by [gamma-33P]ATP based assay
[3] = biological target: T1, Hepatocyte growth factor receptor; test: Inhibition of recombinant MET at 20 uM by [gamma-33P]ATP based assay
[4] = biological target: Receptor-type tyrosine-protein kinase FLT3 (Homo sapiens) (UniProt P36888); test: Inhibition of recombinant FLT3 at 20 uM by [gamma-33P]ATP based assay
Sequence of Receptor-type tyrosine-protein kinase FLT3 (Homo sapiens) (P36888 whole entry): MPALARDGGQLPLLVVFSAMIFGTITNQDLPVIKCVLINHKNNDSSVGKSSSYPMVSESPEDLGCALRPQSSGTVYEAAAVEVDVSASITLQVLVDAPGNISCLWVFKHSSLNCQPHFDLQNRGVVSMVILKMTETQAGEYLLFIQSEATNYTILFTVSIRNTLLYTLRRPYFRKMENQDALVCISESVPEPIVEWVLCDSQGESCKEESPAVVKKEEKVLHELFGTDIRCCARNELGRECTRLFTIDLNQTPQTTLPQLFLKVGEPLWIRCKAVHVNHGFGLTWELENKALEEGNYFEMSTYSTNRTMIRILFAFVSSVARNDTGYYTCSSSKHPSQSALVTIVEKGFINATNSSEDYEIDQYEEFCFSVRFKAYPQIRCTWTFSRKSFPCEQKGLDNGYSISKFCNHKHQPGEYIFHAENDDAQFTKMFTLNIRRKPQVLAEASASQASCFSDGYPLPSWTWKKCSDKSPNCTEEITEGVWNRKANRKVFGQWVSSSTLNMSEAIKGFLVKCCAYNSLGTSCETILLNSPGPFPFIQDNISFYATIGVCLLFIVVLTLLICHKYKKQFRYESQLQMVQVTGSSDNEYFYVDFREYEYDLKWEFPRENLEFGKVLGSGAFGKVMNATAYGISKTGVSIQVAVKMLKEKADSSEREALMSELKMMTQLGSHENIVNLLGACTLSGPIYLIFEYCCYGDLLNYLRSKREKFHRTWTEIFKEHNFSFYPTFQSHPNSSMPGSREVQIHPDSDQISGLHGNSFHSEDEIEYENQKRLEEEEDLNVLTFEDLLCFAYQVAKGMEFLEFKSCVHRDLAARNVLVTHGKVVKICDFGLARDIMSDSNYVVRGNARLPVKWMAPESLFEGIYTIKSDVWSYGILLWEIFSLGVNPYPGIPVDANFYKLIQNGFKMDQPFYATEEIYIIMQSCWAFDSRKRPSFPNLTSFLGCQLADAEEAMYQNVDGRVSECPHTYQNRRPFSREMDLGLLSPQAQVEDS

[5] = biological target: Rho-associated protein kinase 2 (Homo sapiens) (UniProt O75116); test: Inhibition of recombinant ROCK2 at 20 uM by [gamma-33P]ATP based assay
Sequence of Rho-associated protein kinase 2 (Homo sapiens) (O75116 whole entry, looked up): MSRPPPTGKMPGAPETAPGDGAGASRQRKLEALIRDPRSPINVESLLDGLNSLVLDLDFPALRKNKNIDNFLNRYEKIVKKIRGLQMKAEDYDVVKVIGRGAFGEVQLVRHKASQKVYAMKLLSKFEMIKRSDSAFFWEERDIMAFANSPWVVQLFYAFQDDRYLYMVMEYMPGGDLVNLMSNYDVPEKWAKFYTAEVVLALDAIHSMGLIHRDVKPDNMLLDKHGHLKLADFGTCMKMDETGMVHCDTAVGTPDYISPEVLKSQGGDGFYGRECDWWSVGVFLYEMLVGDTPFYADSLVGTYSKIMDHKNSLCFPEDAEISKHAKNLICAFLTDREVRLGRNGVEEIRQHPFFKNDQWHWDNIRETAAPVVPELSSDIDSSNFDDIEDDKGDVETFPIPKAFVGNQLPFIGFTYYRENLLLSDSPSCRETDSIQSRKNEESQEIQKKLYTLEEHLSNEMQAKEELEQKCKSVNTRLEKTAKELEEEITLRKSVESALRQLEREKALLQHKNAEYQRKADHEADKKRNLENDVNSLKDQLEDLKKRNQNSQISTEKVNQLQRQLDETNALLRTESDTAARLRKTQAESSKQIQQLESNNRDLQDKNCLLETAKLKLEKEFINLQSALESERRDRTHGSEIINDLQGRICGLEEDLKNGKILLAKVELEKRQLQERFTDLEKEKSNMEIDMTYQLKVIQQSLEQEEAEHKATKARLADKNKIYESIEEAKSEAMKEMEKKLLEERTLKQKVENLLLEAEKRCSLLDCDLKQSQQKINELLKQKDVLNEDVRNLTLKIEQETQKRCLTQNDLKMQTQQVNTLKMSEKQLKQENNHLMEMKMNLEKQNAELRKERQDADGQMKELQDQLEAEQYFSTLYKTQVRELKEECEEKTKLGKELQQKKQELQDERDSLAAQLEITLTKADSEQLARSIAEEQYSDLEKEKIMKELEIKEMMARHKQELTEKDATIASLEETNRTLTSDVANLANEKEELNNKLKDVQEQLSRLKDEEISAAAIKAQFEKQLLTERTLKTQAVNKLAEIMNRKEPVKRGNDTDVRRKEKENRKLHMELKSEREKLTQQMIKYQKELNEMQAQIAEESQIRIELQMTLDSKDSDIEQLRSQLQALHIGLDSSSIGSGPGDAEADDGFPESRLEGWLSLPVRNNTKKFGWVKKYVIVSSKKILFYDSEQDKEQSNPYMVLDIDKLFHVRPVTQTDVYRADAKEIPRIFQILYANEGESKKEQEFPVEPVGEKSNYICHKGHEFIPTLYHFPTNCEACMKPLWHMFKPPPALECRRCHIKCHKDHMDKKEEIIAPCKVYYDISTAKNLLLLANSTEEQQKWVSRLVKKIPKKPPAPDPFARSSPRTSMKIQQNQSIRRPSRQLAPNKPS

[6] = biological target: T2, Serine/threonine-protein kinase Chk2 (Homo sapiens, UniProt O96017); test: Inhibition of recombinant CHK2 by [gamma-33P]ATP based assay
T2 sequence (O96017 whole entry): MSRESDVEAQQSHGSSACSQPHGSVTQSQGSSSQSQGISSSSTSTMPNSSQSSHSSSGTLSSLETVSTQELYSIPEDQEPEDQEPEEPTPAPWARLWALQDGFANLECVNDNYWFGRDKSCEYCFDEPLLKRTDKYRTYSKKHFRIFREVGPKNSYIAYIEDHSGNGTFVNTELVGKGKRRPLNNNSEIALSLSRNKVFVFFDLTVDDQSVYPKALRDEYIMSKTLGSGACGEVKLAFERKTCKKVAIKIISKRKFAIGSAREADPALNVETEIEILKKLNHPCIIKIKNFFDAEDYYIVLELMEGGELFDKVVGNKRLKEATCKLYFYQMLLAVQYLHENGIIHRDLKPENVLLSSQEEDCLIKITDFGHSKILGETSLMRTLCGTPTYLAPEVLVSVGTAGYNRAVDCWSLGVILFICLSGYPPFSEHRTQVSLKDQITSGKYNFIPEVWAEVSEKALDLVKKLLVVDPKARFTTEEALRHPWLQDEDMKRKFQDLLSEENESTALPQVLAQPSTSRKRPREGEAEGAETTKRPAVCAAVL

[7] = biological target: Tyrosine-protein kinase ABL1 (Homo sapiens) (UniProt P00519); test: Inhibition of recombinant ABL1 at 20 uM by [gamma-33P]ATP based assay
[8] = biological target: T2, Serine/threonine-protein kinase Chk2; test: Inhibition of recombinant CHK2 at 20 uM by [gamma-33P]ATP based assay

T1 sequence (P08581 whole entry): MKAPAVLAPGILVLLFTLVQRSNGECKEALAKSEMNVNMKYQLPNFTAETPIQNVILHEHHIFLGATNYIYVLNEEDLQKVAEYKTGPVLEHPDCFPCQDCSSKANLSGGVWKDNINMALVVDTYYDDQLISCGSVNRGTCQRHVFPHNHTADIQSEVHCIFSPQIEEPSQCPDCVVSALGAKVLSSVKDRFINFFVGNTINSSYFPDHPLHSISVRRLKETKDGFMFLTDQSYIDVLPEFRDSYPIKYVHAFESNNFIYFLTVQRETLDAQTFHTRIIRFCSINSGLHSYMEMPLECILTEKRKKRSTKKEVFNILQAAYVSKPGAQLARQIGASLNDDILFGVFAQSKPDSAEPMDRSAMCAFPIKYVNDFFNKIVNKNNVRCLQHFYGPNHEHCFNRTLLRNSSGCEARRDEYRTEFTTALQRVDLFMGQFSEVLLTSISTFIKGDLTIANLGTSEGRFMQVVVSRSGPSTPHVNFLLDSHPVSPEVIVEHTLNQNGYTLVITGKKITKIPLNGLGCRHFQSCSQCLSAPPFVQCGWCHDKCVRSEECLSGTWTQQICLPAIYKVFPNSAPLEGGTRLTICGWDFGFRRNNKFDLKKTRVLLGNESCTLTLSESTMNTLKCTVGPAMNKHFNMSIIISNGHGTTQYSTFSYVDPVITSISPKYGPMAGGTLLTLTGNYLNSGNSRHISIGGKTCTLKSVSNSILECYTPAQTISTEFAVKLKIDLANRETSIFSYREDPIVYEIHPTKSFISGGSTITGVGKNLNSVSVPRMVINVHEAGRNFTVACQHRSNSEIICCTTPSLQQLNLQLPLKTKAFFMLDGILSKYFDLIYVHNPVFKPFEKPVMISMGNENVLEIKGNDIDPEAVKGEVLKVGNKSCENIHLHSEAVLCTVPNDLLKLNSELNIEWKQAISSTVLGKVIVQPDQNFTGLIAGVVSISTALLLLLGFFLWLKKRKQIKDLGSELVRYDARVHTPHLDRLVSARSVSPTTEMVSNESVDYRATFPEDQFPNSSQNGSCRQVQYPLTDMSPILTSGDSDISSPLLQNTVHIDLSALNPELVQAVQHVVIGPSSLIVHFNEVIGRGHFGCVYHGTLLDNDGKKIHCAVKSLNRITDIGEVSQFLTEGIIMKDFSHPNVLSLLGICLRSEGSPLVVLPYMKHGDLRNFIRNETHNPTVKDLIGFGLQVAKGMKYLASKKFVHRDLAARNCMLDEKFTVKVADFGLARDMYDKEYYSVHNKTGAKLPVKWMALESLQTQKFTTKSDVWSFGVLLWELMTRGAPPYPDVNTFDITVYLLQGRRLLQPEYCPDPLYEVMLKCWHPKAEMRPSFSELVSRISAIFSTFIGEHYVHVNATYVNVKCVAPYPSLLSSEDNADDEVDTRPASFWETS
Sequence of Ribosomal protein S6 kinase beta-1 (Homo sapiens) (P23443 whole entry, looked up): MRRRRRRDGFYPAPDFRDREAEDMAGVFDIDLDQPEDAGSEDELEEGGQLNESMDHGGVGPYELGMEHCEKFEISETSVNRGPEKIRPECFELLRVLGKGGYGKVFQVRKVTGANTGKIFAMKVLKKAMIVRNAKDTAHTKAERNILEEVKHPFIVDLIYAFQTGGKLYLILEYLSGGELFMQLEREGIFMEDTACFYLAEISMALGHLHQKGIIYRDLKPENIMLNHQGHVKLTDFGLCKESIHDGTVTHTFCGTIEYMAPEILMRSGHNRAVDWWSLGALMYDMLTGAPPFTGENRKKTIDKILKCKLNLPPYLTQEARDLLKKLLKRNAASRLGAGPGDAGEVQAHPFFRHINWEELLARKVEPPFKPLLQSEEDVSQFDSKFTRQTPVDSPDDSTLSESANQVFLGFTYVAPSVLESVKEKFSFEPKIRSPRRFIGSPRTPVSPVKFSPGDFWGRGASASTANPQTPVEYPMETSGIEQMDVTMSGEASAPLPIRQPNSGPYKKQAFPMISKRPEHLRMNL

| SMILES | inhibition [1] | IC50 [2] | inhibition [3] | inhibition [4] | inhibition [5] | IC50 [6] | inhibition [7] | inhibition [8] |
| --- | --- | --- | --- | --- | --- | --- | --- | --- |
| Nc1ncc(-c2ccc(C(=O)NCC3CCCNC3)cc2)nc1Oc1ccc2cc[nH]c2c1 (stereo unspecified) | 101% | 7.09 µM | 65% | 99% | 98% | 890 nM | 81% | 98% |
| CC(Oc1nc(-c2ccc(C(=O)NCC3CCCNC3)cc2)cnc1N)c1c(Cl)cccc1Cl (stereo unspecified) | 45% | 1.21 µM | 53% | 61% | 42% | 1130 nM | 11% | 60% |
| Nc1ncc(-c2ccc(C(=O)N[C@@H]3CCNC3)cc2)nc1Oc1ccc2cc[nH]c2c1 | 100% | 13.7 µM | 65% | 86% | 37% | 610 nM | 84% | 96% |
| Nc1ncc(-c2ccc(C(=O)NC3CCNCC3)cc2)nc1Oc1ccc2cc[nH]c2c1 | 98% | 5.52 µM | 73% | 102% | 99% | 800 nM | 85% | 98% |
| Nc1ncc(-c2ccc(C(=O)NCC3CCNC3)cc2)nc1Oc1ccc2cc[nH]c2c1 (stereo unspecified) | 89% | 3.55 µM | 75% | 93% | 98% | 580 nM | 87% | 98% |
| Nc1ncc(-c2ccc(C(=O)NCC3CCCN3)cc2)nc1Oc1ccc2cc[nH]c2c1 (stereo unspecified) | 86% | 4.27 µM | 77% | 100% | 97% | 960 nM | 87% | 98% |
| Nc1ncc(-c2ccc(C(=O)NCC3CCNCC3)cc2)nc1Oc1ccc2cc[nH]c2c1 | 92% | 3.33 µM | 96% | 94% | 98% | 1120 nM | 94% | 97% |
